Results: PubChem BioAssay (NCI)
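A five-concentration, 48-hour dose response in 96-well plates underlies each endpoint, interpolated linearly between surrounding concentrations. TGI marks complete inhibition of growth.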

Assays:
Test in all cases: inhibition of tumour cell growth, NCI panel, 48 h
UACC-257 melanoma = system: UACC-257 melanoma
NCI-H460 lung = system: NCI-H460 lung
EKVX NSCLC = system: EKVX NSCLC
TK-10 renal = system: TK-10 renal
SK-MEL-28 melanoma = system: SK-MEL-28 melanoma
OVCAR-5 ovarian = system: OVCAR-5 ovarian
786-0 renal = system: 786-0 renal
A549 NSCLC = system: A549 NSCLC
K-562 leukemia = system: K-562 leukemia
HOP-92 NSCLC = system: HOP-92 NSCLC
SNB-75 CNS = system: SNB-75 CNS
HOP-18 NSCLC = system: HOP-18 NSCLC
RPMI-8226 leukemia = system: RPMI-8226 leukemia
M14 melanoma = system: M14 melanoma
LXFL 529 NSCLC = system: LXFL 529 NSCLC
CCRF-CEM leukemia = system: CCRF-CEM leukemia
KM20L2 colon = system: KM20L2 colon
SW-620 colon = system: SW-620 colon
SK-MEL-5 melanoma = system: SK-MEL-5 melanoma
OVCAR-4 ovarian = system: OVCAR-4 ovarian
UACC-62 melanoma = system: UACC-62 melanoma
U251 CNS = system: U251 CNS
KM12 colon = system: KM12 colon
COLO 205 colon = system: COLO 205 colon
DMS 273 small cell lung = system: DMS 273 small cell lung
HCT-116 colon = system: HCT-116 colon
RXF 393 renal = system: RXF 393 renal
SF-295 CNS = system: SF-295 CNS
MOLT-4 leukemia = system: MOLT-4 leukemia
NCI-H522 lung = system: NCI-H522 lung
HOP-62 NSCLC = system: HOP-62 NSCLC
LOX IMVI melanoma = system: LOX IMVI melanoma
SF-268 CNS = system: SF-268 CNS
SK-OV-3 ovarian = system: SK-OV-3 ovarian
SR leukemia = system: SR leukemia
DLD-1 colon = system: DLD-1 colon
M19-MEL melanoma = system: M19-MEL melanoma
HT29 colon = system: HT29 colon
SNB-19 CNS = system: SNB-19 CNS
HCT-15 colon = system: HCT-15 colon
RXF-631 renal = system: RXF-631 renal
HCC-2998 colon = system: HCC-2998 colon
DMS 114 small cell lung = system: DMS 114 small cell lung
IGROV1 ovarian = system: IGROV1 ovarian
SN12C renal = system: SN12C renal
NCI-H23 lung = system: NCI-H23 lung
UO-31 renal = system: UO-31 renal
SF-539 CNS = system: SF-539 CNS
ACHN renal = system: ACHN renal
CAKI-1 renal = system: CAKI-1 renal
OVCAR-8 ovarian = system: OVCAR-8 ovarian
OVCAR-3 ovarian = system: OVCAR-3 ovarian
SNB-78 CNS = system: SNB-78 CNS
MALME-3M melanoma = system: MALME-3M melanoma
SK-MEL-2 melanoma = system: SK-MEL-2 melanoma
A498 renal = system: A498 renal
HL-60(TB) leukemia = system: HL-60(TB) leukemia
NCI-H226 lung = system: NCI-H226 lung

Measured: TGI

C[N+](C)(C)CC1CCCC/C1=N\OC(=O)c1ccccc1 (centres undefined)
not listed: SK-MEL-2 melanoma | A498 renal | HL-60(TB) leukemia | NCI-H226 lung
> 100 µM: all other assays above

O=C(/C=C/c1ccc(OCCCOc2ccc(/C=C/C(=O)c3ccccc3)cc2)cc1)c1ccccc1
not listed: OVCAR-5 ovarian | HOP-92 NSCLC | HOP-18 NSCLC | U251 CNS | KM12 colon | NCI-H522 lung | SK-OV-3 ovarian | CAKI-1 renal | SNB-78 CNS
> 100 µM: all other assays above

ON/N=C/c1cc2c(cc1Br)OCO2
not listed: SNB-75 CNS | M14 melanoma | OVCAR-4 ovarian | HCT-15 colon | UO-31 renal | SNB-78 CNS | A498 renal
> 386 µM: all other assays above
